SMILES strings stand for the structures. pEC50: −log10 of the molar value. A value given as a limit tells only on which side of the number the result lay.

T1 sequence (O75460 19-977): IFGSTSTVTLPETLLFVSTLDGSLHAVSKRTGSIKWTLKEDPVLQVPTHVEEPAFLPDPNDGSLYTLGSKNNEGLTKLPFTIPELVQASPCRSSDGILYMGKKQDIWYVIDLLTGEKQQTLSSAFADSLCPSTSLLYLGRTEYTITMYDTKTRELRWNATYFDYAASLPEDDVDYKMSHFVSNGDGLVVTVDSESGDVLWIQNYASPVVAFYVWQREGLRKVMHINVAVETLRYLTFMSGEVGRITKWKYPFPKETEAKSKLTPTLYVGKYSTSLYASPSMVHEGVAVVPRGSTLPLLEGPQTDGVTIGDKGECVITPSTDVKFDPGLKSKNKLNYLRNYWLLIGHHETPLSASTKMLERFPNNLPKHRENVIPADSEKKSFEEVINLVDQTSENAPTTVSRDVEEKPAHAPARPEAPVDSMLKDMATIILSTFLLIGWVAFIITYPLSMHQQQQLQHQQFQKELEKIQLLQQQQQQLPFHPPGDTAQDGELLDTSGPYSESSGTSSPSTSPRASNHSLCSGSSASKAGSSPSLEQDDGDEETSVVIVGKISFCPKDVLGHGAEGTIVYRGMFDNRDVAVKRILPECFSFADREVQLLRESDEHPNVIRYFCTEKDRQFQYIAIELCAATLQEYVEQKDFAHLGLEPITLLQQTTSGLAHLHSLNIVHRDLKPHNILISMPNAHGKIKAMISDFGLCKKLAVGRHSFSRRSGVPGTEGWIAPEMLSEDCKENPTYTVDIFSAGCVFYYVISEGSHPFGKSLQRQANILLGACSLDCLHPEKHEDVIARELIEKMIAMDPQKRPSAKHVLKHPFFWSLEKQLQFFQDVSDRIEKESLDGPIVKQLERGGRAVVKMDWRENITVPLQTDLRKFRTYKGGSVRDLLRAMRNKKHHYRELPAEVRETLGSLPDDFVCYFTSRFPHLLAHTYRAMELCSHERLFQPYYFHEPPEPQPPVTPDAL

The assay has as its target T1, IRE1α (Homo sapiens, UniProt O75460).
T1 construct: purchased SignalChem
Kind of assay: In vitro FRET assay (XBP1 RNA probe cleavage by IRE1α). To be noted: biochemical FRET assay, 2 nM IRE1α. As for the experimental part:
In vitro FRET assay was performed to evaluate the ability of select compounds to inhibit IRE1, the results of which are summarized in the following table.
To perform the in vitro FRET assay, 1× complete assay buffer (CAB; […], 50 mM sodium citrate pH 7.15, 1 mM magnesium acetate, 0.02% Tween 20) was used to dilute SignalChem IRE1α in protein to a final concentration of 2 nM. Selected compounds were serially diluted with DMSO in a non-binding black 384-well plate for a total of 15 μl in each well. 2 μl of the serially diluted compound or DMSO control were then added to new wells containing 98 μl of 1×CAB, for a total volume of 100 μl, 10 μl of which were then transferred to wells of a new plate. 5 μl of the diluted IRE1α was then added to each well. 5 μl of a […] XBP1 RNA probe was then added to each well. Fluorescence was then read over 30 minutes in kinetic mode (485/515 nm). Two RNA probes were used, XBP1 wildtype (CAUGUCCGCAGCACAUG; SEQ ID NO: 1) which is able to be spliced by active IRE1α or XBP1 mutant (CAUGUCCCCAGCACAUG; SEQ ID NO: 2) which is unable to be spliced. Each probe contained a 5′ 6-FAM modification and a 3′ IOWA Black FQ modification. […]
In turn, `CN1CCN(Cc2ccc(NC(=O)Nc3ccc4oc(-c5cnn6ccccc56)nc4c3)cc2C(F)(F)F)CC1` [Compound 16, 1-(4-((4-methylpiperazin-1-yl)methyl)-3-(trifluoromethyl)phenyl)-3-(2-(pyrazolo[1,5-a]pyridin-3-yl)benzo[d]oxazol-5-yl)urea] had a pEC50 of no less than 5.30.

Take `CN1CCN(Cc2ccc(NC(=O)Nc3cc(-c4ccc(-c5cccc6nccnc56)cc4)n(C)n3)cc2C(F)(F)F)CC1` [Compound 53]: the pEC50 is less than 4.00.

The compound `CN1CCC(=Cc2ccc(NC(=O)Nc3cc(-c4ccc5cc(N)ncc5c4)n(C)n3)cc2C(F)(F)F)CC1` [Compound 71, 1-(5-(3-aminoisoquinolin-7-yl)-1-methyl-1H-pyrazol-3-yl)-3-(4-((1-methylpiperidin-4-ylidene)methyl)-3-(trifluoromethyl)phenyl)urea] had a pEC50 of 4.30 to 5.30.

`Cn1nc(NC(=O)Nc2ccc(CN3CCCCC3)c(C(F)(F)F)c2)cc1-c1ccc2ccncc2c1` [Compound 42, 1-(5-(isoquinolin-7-yl)-1-methyl-1H-pyrazol-3-yl)-3-(4-(piperidin-1-ylmethyl)-3-(trifluoromethyl)phenyl)urea] gave a negative-log EC50 (pEC50) of less than 4.00.

`CN1CCN(Cc2ccc(NC(=O)Nc3cc(-c4ccc5ccncc5c4)n(C)n3)c(-c3cnn(C)c3)c2)CC1` [Compound 21, 1-(5-(isoquinolin-7-yl)-1-methyl-1H-pyrazol-3-yl)-3-(2-(1-methyl-1H-pyrazol-4-yl)-4-((4-methylpiperazin-1-yl)methyl)phenyl)urea]: the pEC50 is 4.00 to 4.30.

`CN1CCN(Cc2ccc(NC(=O)Nc3cc(-c4ccn5ccnc5c4)n(C)n3)cc2C(F)(F)F)CC1` [Compound 4, 1-(5-(imidazo[1,2-a]pyridin-7-yl)-1-methyl-1H-pyrazol-3-yl)-3-(4-((4-methylpiperazin-1-yl)methyl)-3-(trifluoromethyl)phenyl)urea] showed a pEC50 of less than 4.00.

Compound `Cn1nc(NC(=O)Nc2ccc(CN3CCOCC3)c(C(F)(F)F)c2)cc1-c1ccc2ccncc2c1` [Compound 39, 1-(5-(isoquinolin-7-yl)-1-methyl-1H-pyrazol-3-yl)-3-(4-(morpholinomethyl)-3-(trifluoromethyl)phenyl)urea] had a negative logarithm of the EC50 (pEC50) of less than 4.00.

The compound `CN1CCN(Cc2ccc(NC(=O)Nc3cc(-c4cccnc4)[nH]n3)cc2C(F)(F)F)CC1` [Compound 7, 1-(4-((4-methylpiperazin-1-yl)methyl)-3-(trifluoromethyl)phenyl)-3-(5-(pyridin-3-yl)-1H-pyrazol-3-yl)urea] had a pEC50 of 4.30 to 5.30.

On to `CN1CCN(Cc2ccc(NC(=O)Nc3ccc4oc(-c5cccnc5)nc4c3)cc2C(F)(F)F)CC1` [Compound 15, 1-(4-((4-methylpiperazin-1-yl)methyl)-3-(trifluoromethyl)phenyl)-3-(2-(pyridin-3-yl)benzo[d]oxazol-5-yl)urea], for which the negative-log EC50 (pEC50) is less than 4.00.

Compound `CN1CCN(CCc2cccc(NC(=O)Nc3cc(-c4ccc5ccncc5c4)n(C)n3)c2)CC1` [Compound 19, 1-(5-(isoquinolin-7-yl)-1-methyl-1H-pyrazol-3-yl)-3-(3-(2-(4-methylpiperazin-1-yl)ethyl)phenyl)urea] gave a pEC50 of less than 4.00.

For `Cn1nc(NC(=O)Nc2ccccc2F)cc1-c1ccc2ccncc2c1` [Compound 69, 1-(2-fluorophenyl)-3-(5-(isoquinolin-7-yl)-1-methyl-1H-pyrazol-3-yl)urea], the negative-log EC50 (pEC50) is less than 4.00.

In turn, `CN1CCN(Cc2ccc(NC(=O)Nc3nn(C)c4cc(-c5cnc(N)nc5)ccc34)cc2C(F)(F)F)CC1` [Compound 9, 1-(6-(2-aminopyrimidin-5-yl)-1-methyl-1H-indazol-3-yl)-3-(4-((4-methylpiperazin-1-yl)methyl)-3-(trifluoromethyl)phenyl)urea] gave a pEC50 of no less than 5.30.

As to `Cc1nc(NC(=O)Nc2ccc(CN3CCN(C)CC3)c(C(F)(F)F)c2)[nH]c1-c1ccc2ccncc2c1` [Compound 46, 1-(5-(isoquinolin-7-yl)-4-methyl-4H-imidazol-2-yl)-3-(4-((4-methylpiperazin-1-yl)methyl)-3-(trifluoromethyl)phenyl)urea], the pEC50 was no less than 5.30.

In turn, `Cn1nc(NS(=O)(=O)c2ccccc2)cc1-c1ccc2cc(N)ncc2c1` [Compound 66, N-(5-(3-aminoisoquinolin-7-yl)-1-methyl-1H-pyrazol-3-yl)benzenesulfonamide] gave a pEC50 of less than 4.00.

In turn, `CN1CCN(Cc2ccc(NC(=O)Nc3cc(-c4ccc5nc(N)nc(O)c5c4)n(C)n3)cc2C(F)(F)F)CC1` [Compound 27, 1-(5-(2-amino-4-hydroxyquinazolin-6-yl)-1-methyl-1H-pyrazol-3-yl)-3-(4-((4-methylpiperazin-1-yl)methyl)-3-(trifluoromethyl)phenyl)urea] gave a pEC50 of no less than 5.30.

`CN1CCN(Cc2ccc(NC(=O)Nc3cc(-c4ccc5ccncc5c4)n(C)n3)cc2C(F)(F)F)CC1` [Compound 24, 1-(5-(isoquinolin-7-yl)-1-methyl-1H-pyrazol-3-yl)-3-(4-((4-methylpiperazin-1-yl)methyl)-3-(trifluoromethyl)phenyl)urea] showed a pEC50 of no less than 5.30.

`Cn1nc(NC(=O)Nc2ccc(CN3CCN(CCO)CC3)c(C(F)(F)F)c2)cc1-c1ccc2ccncc2c1` [Compound 36, 1-(4-((4-(2-hydroxyethyl)piperazin-1-yl)methyl)-3-(trifluoromethyl)phenyl)-3-(5-(isoquinolin-7-yl)-1-methyl-1H-pyrazol-3-yl)urea] showed a pEC50 of no less than 5.30.

Turning to `CN1CCN(Cc2ccc(Nc3c(Nc4cc(-c5ccc6nc(N)ncc6c5)n(C)n4)c(=O)c3=O)cc2C(F)(F)F)CC1` [Compound 75, 3-((5-(2-aminoquinazolin-6-yl)-1-methyl-1H-pyrazol-3-yl)amino)-4-((4-((4-methylpiperazin-1-yl)methyl)-3-(trifluoromethyl)phenyl)amino) cyclobut-3-ene-1,2-dione], the pEC50 was no less than 5.30.

In turn, `CN1CCN(Cc2ccc(NC(=O)Nc3cc(-c4ccc5ncncc5c4)n(C)n3)cc2C(F)(F)F)CC1` [Compound 22, 1-(1-methyl-5-(quinazolin-6-yl)-1H-pyrazo1-3-yl)-3-(4-((4-methylpiperazin-1-yl)methyl)-3-(trifluoromethyl)phenyl)urea] had a pEC50 of no less than 5.30.

Compound `O=C(Nc1ccc2oc(-c3cccnc3)nc2c1)[C@H]1C[C@H]1c1ccccc1` [Compound 59, (1S,2R)-2-phenyl-N-(2-(pyridin-3-yl)benzo[d]oxazol-5-yl)cyclopropane-1-carboxamide] showed a negative-log EC50 (pEC50) of 4.30 to 5.30.

`CSc1ccccc1NC(=O)Nc1cc(-c2ccc3ccncc3c2)n(C)n1` [Compound 68, 1-(5-(isoquinolin-7-yl)-1-methyl-1H-pyrazol-3-yl)-3-(2-(methylthio)phenyl)urea]: the negative logarithm of the EC50 (pEC50) is less than 4.00.

`Cn1nc(NC(=O)Nc2ccc(CN3CCCCCC3)c(C(F)(F)F)c2)cc1-c1ccc2ccncc2c1` [Compound 38, 1-(4-(azepan-1-ylmethyl)-3-(trifluoromethyl)phenyl)-3-(5-(isoquinolin-7-yl)-1-methyl-1H-pyrazol-3-yl)urea] had a pEC50 of less than 4.00.

For `CNS(=O)(=O)c1ccc(NC(=O)Nc2cc(-c3ccc4ccncc4c3)n(C)n2)cc1` [Compound 70, 4-(3-(5-(isoquinolin-7-yl)-1-methyl-1H-pyrazol-3-yl)ureido)-N-methylbenzenesulfonamide], the pEC50 is less than 4.00.

`CN1CCN(Cc2ccc(Nc3c(Nc4cc(-c5ccc6ccncc6c5)n(C)n4)c(=O)c3=O)cc2)CC1` [Compound 74, 3-((5-(isoquinolin-7-yl)-1-methyl-1H-pyrazol-3-yl)amino)-4-((4-((4-methylpiperazin-1-yl)methyl)phenyl)amino)cyclo-but-3-ene-1,2-dione] had a pEC50 of no less than 5.30.

In the case of `Cn1nc(NC(=O)NCc2ccccc2)cc1-c1ccc2ccncc2c1` [Compound 63, 1-benzyl-3-(5-(isoquinolin-7-yl)-1-methyl-1H-pyrazol-3-yl)urea], the negative logarithm of the EC50 (pEC50) was less than 4.00.

In turn, `CN1CCN(Cc2ccc(NC(=O)Nc3cc(-c4ccc5ccc(O)nc5c4)n(C)n3)cc2C(F)(F)F)CC1` [Compound 23, 1-(5-(2-hydroxyquinolin-7-yl)-1-methyl-1H-pyrazol-3-y1)-3-(4-((4-methylpiperazin-1-yl)methyl)-3-(trifluoromethyl)phenyl)urea] gave a pEC50 of 4.30 to 5.30.

In turn, `Cn1nc(NC(=O)Nc2ccc(CN3CCC(c4ccccc4)CC3)c(C(F)(F)F)c2)cc1-c1ccc2ccncc2c1` [Compound 40, 1-(5-(isoquinolin-7-yl)-1-methyl-1H-pyrazol-3-yl)-3-(4-((4-phenylpiperidin-1-yl)methyl)-3-(trifluoromethyl)phenyl)urea] had a pEC50 of less than 4.00.

Compound `CN1CCN(Cc2ccc(NC(=O)Nc3cc(-c4cnc5ccccc5c4)n(C)n3)cc2C(F)(F)F)CC1` [Compound 25, 1-(1-methyl-5-(quinolin-3-yl)-1H-pyrazol-3-yl)-3-(4-((4-methylpiperazin-1-yl)methyl)-3-(trifluoromethyl)phenyl)urea] showed a pEC50 of 4.30 to 5.30.

In the case of `CN1CCN(Cc2ccc(NC(=O)Nc3cc(-c4ccc(-c5ccc(N)nc5)cc4)[nH]n3)cc2C(F)(F)F)CC1` [Compound 55, 1-(5-(4-(6-aminopyridin-3-yl)phenyl)-1H-pyrazol-3-yl)-3-(4-((4-methylpiperazin-1-yl)methyl)-3-(trifluoromethyl)phenyl)urea], the pEC50 is 4.30 to 5.30.

The values above are taken from patent US10125123B2, “Small molecule IRE1-α inhibitors” (Cornell University, priority 2016, dated 2018).
